A short description of data set [1]: Safety. Format: in vivo, human.
Data set [2] is classed as in vivo, human.
Data set [3] is described as follows: Safety. The data set is classed as in vivo, human. This is another data set of the same source.
In data set [4] the test system is CYP3A4 or other CYP isoenzymes. The settings on record: cited from earlier work.
The conditions of data set [5]: cited from earlier work.
The conditions of data set [6]: cited from earlier work. This is another data set of the same source.
Data set [7] has as its system CYP system. The following applies: cited from earlier work.
Setting [8] is: apixaban 10 mg + atenolol 100 mg vs apixaban 10 mg.

Each structure is given as a SMILES string. Where two headings read alike, the source gives them in different places.

For `COc1ccc(-n2nc(C(N)=O)c3c2C(=O)N(c2ccc(N4CCCCC4=O)cc2)CC3)cc1` [Apixaban], under setting [8], the “Decrease in apixaban AUC0–t when coadministered with atenolol” value was 15%, the “Decrease in apixaban AUCinf when coadministered with atenolol” value stood at 15% and the “Decrease in apixaban Cmax when coadministered with atenolol” value is 18%. Where the note is “apixaban 10 mg, atenolol 100 mg, single doses”, the “Pharmacokinetic interaction between apixaban and atenolol” value was “no clinically relevant interaction”. The AUCinf (apixaban, Treatment C, apixaban 10 mg + atenolol 100 mg, geometric mean (CV %), n=14) was 1878 (33) ng·h/mL. Also, where the note is “human, plasma, oral, 10 mg”, the AUC(0-inf) came to 2160 ng·h/mL, the exposure AUC(0-t) turned out to be 2100 ng·h/mL, the Cmax is 216 ng/mL and the Tmax is 3 h. Also, the half-life (human, plasma, oral, 10 mg) is 13.9 h. Further, in data set [1] (digoxin 0.25 mg, then digoxin 0.25 mg + apixaban 20 mg once daily), the “Deaths, serious AEs, major bleeding-related AEs” value is given as “No deaths, serious AEs, or major bleeding-related AEs”. Moreover, the “Effect of apixaban on the PK of digoxin” value in data set [2] (apixaban 20 mg once daily, digoxin 0.25 mg once daily) is “no effect”. The “Number of AEs” value in data set [3] (apixaban 10 mg alone, none bleeding-related) is listed as “five”. Also, in data set [3] (single doses of apixaban 10 mg, atenolol 100 mg, or both), the “Deaths, serious AEs, major bleeding-related AEs” value is “No deaths, serious AEs, or major bleeding-related AEs”. Also, in data set [4], the “inhibition or induction of CYP3A4 or other CYP isoenzymes” value is on record as “does not inhibit or induce”. In addition, the “bound to serum proteins” value in data set [5] (apixaban) is 87%. Also, the protein-bound in data set [5] was 87%. In data set [6] (apixaban in healthy subjects), the “mean elimination half-life (t1/2)” value is ~ 12 hours. Moreover, in data set [6] (effect of body weight), the “lower apixaban AUCinf in subjects ≥120 kg” value is on record as 23% and the “lower apixaban Cmax in subjects ≥120 kg” value is 31%.
Regarding `CC(C)NCC(O)COc1ccc(CC(N)=O)cc1` (centres unmarked) [Atenolol, atenolol], the “Tolerability of coadministration with apixaban” value in data set [3] (healthy subjects, atenolol 100 mg + apixaban 10 mg) was “generally well tolerated”.
As for `C[C@H]1O[C@@H](O[C@H]2[C@@H](O)C[C@H](O[C@H]3[C@@H](O)C[C@H](O[C@H]4CC[C@@]5(C)[C@H](CC[C@@H]6[C@@H]5C[C@@H](O)[C@]5(C)[C@@H](C7=CC(=O)OC7)CC[C@]65O)C4)O[C@@H]3C)O[C@@H]2C)C[C@H](O)[C@@H]1O` [Digoxin, digoxin], in data set [7], the “induction or inhibition of the CYP system” value is listed as “does not appear to induce or inhibit”. Besides, the “Tolerability of coadministration with apixaban” value in data set [1] (healthy subjects, digoxin 0.25 mg + apixaban 20 mg) is “generally well tolerated”. In addition, in data set [2] (digoxin, Treatment B, digoxin 0.25 mg + apixaban 20 mg, day 20, median (min, max)), the Tmax is listed as 1.00 (1.0, 2.0) h. In data set [2] (human, serum, oral, 0.25 mg), this compound registered an area under the curve (AUC) of 16.8 ng·h/mL and a Cmax of 1.68 ng/mL.
